Source: patent US10392348B2, “2-oxo-3,4-dihydroquinoline compounds as plant growth regulators” (Syngenta Participations AG, priority 2015, dated 2019)
Where two headings read alike, the source gives them in different places.

Tests used:
[1] = system: corn plants (variety NK OCTET); experiment: Reduced plant water use in corn (foliar spray, repeated weighing of pots); assay type: in vivo; settings: Zea mays, corn plants sprayed at 500 μM, average of 6 pots
How it was run: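 Twelve-day-old corn plants sprayed on foliage with EC formulations diluted in water with 0.4% rape seed methyl ester. Day-time water use tracked by repeated pot weighing through 2.5 DAA, summed cumulatively; analysed by covariance with water use 1 day before application as baseline.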

[2] = system: soybean plants (variety S20-G7); experiment: Reduced plant water use in soybean (foliar spray, repeated weighing of pots); assay type: in vivo; settings: Glycine max, foliar, Table B1, sprayed at 500 μM, vs negative control
How it was run: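 Compounds in blank EC formulation diluted in water with EXTRAVON 1 g/20 L, foliar-sprayed on 12-day-old soybean in growth chambers. Water use from repeated pot weighing at a.m./p.m. periods over 0-2 DAA, summed to cumulative 0-2.5 DAA; ANCOVA with pre-application baseline covariate, relative to blank-formulation control.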

[3] = 0 h, water use during day time vs negative control, 0 DAA a.m. (10:30-12:50), read-out: % WU 0 DAA AM
[4] = 0 h, water use during day time vs negative control, 0 DAA p.m. (14:00-19:50), read-out: % WU 0DAA PM
[5] = 24 h, water use during day time vs negative control, 1 DAA a.m. (07:30-12:50), read-out: % WU 1DAA AM
[6] = 24 h, water use during day time vs negative control, 1 DAA p.m. (14:00-19:50), read-out: % WU 1DAA PM
[7] = 48 h, water use during day time vs negative control, 2 DAA a.m. (07:30-12:50), read-out: % WU 2 DAA AM
[8] = 48 h, water use during day time vs negative control, 2 DAA p.m. (14:00-19:50), read-out: % WU 2 DAA PM
[9] = 60 h, cumulative total water use 0-2.5 DAA (sum of the time points) vs negative control, read-out: % WU Total 0 to 2.5 DAA
[10] = 0 h, 0 DAA a.m. (10:30-12:50), read-out: % WU 0 DAA AM
[11] = 24 h, 1 DAA a.m. (7:30-12:50), read-out: % WU 1DAA AM
[12] = 24 h, 1 DAA p.m. (14:00-19:50), read-out: % WU 1DAA PM
[13] = 48 h, 2 DAA a.m. (07:30-12:50), read-out: % WU 2 DAA AM
[14] = 48 h, 2 DAA p.m. (14:00-19:50), read-out: % WU 2 DAA PM
[15] = 60 h, cumulative total WU (0-2.5 DAA), read-out: % WU Total 0 to 2.5 DAA

SMILES | change in vivo at 500 µM [1, 3] [%] | change in vivo at 500 µM [1, 4] [%] | change in vivo at 500 µM [1, 5] [%] | change in vivo at 500 µM [1, 6] [%] | change in vivo at 500 µM [1, 7] [%] | change in vivo at 500 µM [1, 8] [%] | change in vivo at 500 µM [1, 9] [%] | melting point [°C] | change in vivo at 500 µM [2, 10] [%] | change in vivo at 500 µM [2, 11] [%] | change in vivo at 500 µM [2, 12] [%] | change in vivo at 500 µM [2, 13] [%] | change in vivo at 500 µM [2, 14] [%] | change in vivo at 500 µM [2, 15] [%]
C/C=C/S(=O)(=O)NCc1ccc2c(c1)CCC(=O)N2CCC [Compound 3.060, (E)-N-[(2-oxo-1-propyl-3,4-dihydroquinolin-6-yl)methyl]prop-1-ene-1-sulfonamide] | -14.8 | -10 | -10.6 | -8.4 | -8.2 | -6.4 | -9.3 | 95 to 99 | -7.9 | -5.8 | -2.6 | -5.4 | -2.7 | -4.6
CCCN1C(=O)CCc2cc(CNS(=O)(=O)c3ccc(C)s3)ccc21 [Compound 3.061, 5-methyl-N-[(2-oxo-1-propyl-3,4-dihydroquinolin-6-yl)methyl]thiophene-2-sulfonamide] | -20.8 | -19.1 | -9.5 | -7.5 | -2.8 | -3.9 | -9 | 151 to 154 | -47.8 | 1 | 3.4 | 1.6 | 1.2 | -13.7
CCCN1C(=O)CCc2cc(CNS(=O)(=O)c3cn(C)cn3)ccc21 [Compound 3.063, 1-methyl-N-[(2-oxo-1-propyl-3,4-dihydroquinolin-6-yl)methyl]imidazole-4-sulfonamide] | -8.4 | -3.1 | -3 | -1 | -1.5 | 2 | -1.4 | 168 to 171 | -9.3 | -5.1 | -3.9 | -6.6 | -5 | -5.5
CCCN1C(=O)CCc2cc(CNS(=O)(=O)c3cc(Cl)sc3Cl)ccc21 [Compound 3.064, 2,5-dichloro-N-[(2-oxo-1-propyl-3,4-dihydroquinolin-6-yl)methyl]thiophene-3-sulfonamide] | -12.6 | -14.2 | -11.6 | -9.9 | -5.6 | -4.7 | -9.3 | 131 to 134 | -34.7 | -23.3 | -21.3 | -17.2 | -13.5 | -22.2
CCCN1C(=O)CCc2cc(CNS(=O)(=O)CCC(F)(F)F)ccc21 [Compound 3.067, 3,3,3-trifluoro-N-[(2-oxo-1-propyl-3,4-dihydroquinolin-6-yl)methyl]propane-1-sulfonamide] | -14.7 | -10.7 | -12.1 | -11.5 | -9.9 | -10.1 | -11.1 | 132 to 135 | -28.4 | -19.3 | -17.2 | -13.3 | -9.5 | -17.2
CCCN1C(=O)CCc2cc(CNS(=O)(=O)c3ccsc3)ccc21 [Compound 3.068, N-[(2-oxo-1-propyl-3,4-dihydroquinolin-6-yl)methyl]thiophene-3-sulfonamide] | -25.5 | -24.9 | -15.8 | -13.1 | -8.9 | -9.4 | -14.8 | 150 to 154 | -46 | -39.3 | -31.6 | -22.3 | -15.3 | -31.6
CCCN1C(=O)CCc2cc(CNS(=O)(=O)c3ccc4ccccc4c3)ccc21 [Compound 3.075, N-[(2-oxo-1-propyl-3,4-dihydroquinolin-6-yl)methyl]naphthalene-2-sulfonamide] | -9.8 | -7.9 | -8.2 | -6.4 | -4.9 | -3.3 | -6.3 | 169 to 173 | -10.8 | -2.1 | -0.6 | -2.1 | -2 | -3.3
